Results reported in patent US11369609B2, “Small molecule Wnt inhibitor as treatment for dyslipidemia” (Yale University, priority 2019, dated 2022).
“Also recorded” adds a separate entry of the source.

Tests used:
canonical Wnt signaling [1] = assay: Atherosclerosis in high fat diet-fed Apoe−/− and DKO TCF/Lef-LacZ mice; format: in vivo
Text: Apoe −/− and endothelial GR KO/Apo E KO double knockout (DKO) mice were fed a high fat diet containing 1.25% cholesterol (Research Diets) for the time indicated. In some experiments, animals of both genotype were bred to the BAT-GAL (ß-catenin/TCF/LEF) reporter transgenic mouse. Mice were sacrificed and the aortas removed. Aortas were stained with X-galactosidase (Sigma-Aldrich) according to the manufacturer's instructions. In other aortas, total RNA was extracted and cDNA was made as described above. The custom PCR array was used to evaluate pathways of interest as described. All studies were performed according to a protocol approved by the Institutional Care and use Committee at Yale University School of Medicine and were consistent with the National Institutes of Health Guidelines for the Care of Laboratory Animals.
Mice were fasted for 12-15 hours and blood was collected by retro-orbital venous puncture. Whole blood was spun down and plasma stored at −80° C. Total cholesterol and triglyceride levels were measured enzymatically by kits from Wako and Sigma, respectively, according to the manufacturer's instructions.
At the completion of high-fat diet feeding mice were anesthetized and euthanized. Mouse hearts were perfused with PBS and then 4% paraformaldehyde (PFA) and the aortas and were dissected out using a dissecting microscope and maintained in PFA overnight. Whole aortas were stained with Oil Red O (Sigma) to quantify lesion area. Oil Red O stock solution (35 ml, 0.2% weight/volume in methanol) was mixed with 10 ml 1 M NaOH and filtered. Aortas were briefly rinsed in 78% methanol, incubated in Oil Red O for 45 minutes and then destained in 78% methanol for 5 minutes and mounted on microscopic slides. Lipid staining and lesion size were quantified by averaging six sections from the same mouse using the IMAGE J program.
In order to visualize the activation of canonical Wnt signaling, Apoe^−/−, GR^fl/fl, Tie2 Cre−; TCF/Lef-LacZ (Apoe^−/−) mice were bred with Apoe^−/−, GR^fl/fl, Tie2 Cre+; TCF/Lef-LacZ (DKO) mice. Apoe^−/− and DKO mice were fed a high fat diet (HFD) for 12 weeks. The Wnt inhibitor (wnti) LGK974 at a dose of 5 mg/kg body weight, or vehicle, was administered 6 days/week by oral gavage from 4-12 weeks. The aortas of vehicle-treated control animals and wnti-treated animals (n=6-7/group) were stained for LacZ (FIG. 11B). A LacZ(−) aorta was included as a control. […] Aortic area stained is quantified in the corresponding graph (FIG. 11B). Body weight of the animals of both genotypes with and without Wnti treatment was measured. […] Triglycerides, total cholesterol and HDL cholesterol were measured after 12 weeks of diet feeding in animals of both genotypes in the presence of absence of Wnti. […] Lipid deposition in aortas of wnti- or vehicle-treated Apoe^−/− and DKO treated mice was analyzed by Oil Red O staining. Atherogenic lesion area was calculated by using the Image J program. […] Masson Trichrome and H&E staining was performed in the brachiocephalic artery of Wnti- or sham-treated Apoe^−/− and DKO treated mice (FIG. 11F). Lesion size was measured using Image J program.

canonical Wnt signaling [2] = assay: Renal fibrosis in diabetic GR^ECKO and control littermate mice treated with Wnt inhibitor; format: in vivo
Experimental: All experiments were performed in accordance with the National Institute of Health (NIH) Guidelines for the Care of Laboratory Animals. Mice lacking the endothelial glucocorticoid receptor (GR) (known as GR^ECKO) and those lacking this receptor on the Apo E null background (DKO) were generated as previously described (6). The induction of diabetes in CD-1 mice and C57B/L6 mice was performed according to previously established experimental protocols (38-42). Briefly, diabetes was induced in 10-week-old GR^ECKO mice with five consecutive intraperitoneal (IP) doses of streptozotocin (STZ) 50 mg/kg in 10 mmol/L citrate buffer (pH 4.5). Wnt inhibitor (LGK974) was provided to GR^ECKO and control littermate at 5 mg/kg at a frequency of six doses per week for 8 weeks (43). Etomoxir (20 mg/kg) and c75 (15 mg/kg) were dosed (ip) three times per week for 3 weeks in the GR^ECKO and control littermate. A single IP dose of 200 mg/kg STZ was used to induce diabetes in CD-1 mice. Fenofibrate (100 mg/kg), simvastatin (40 mg/kg), were dosed orally for 4 weeks in diabetic CD-1 mice. All mice were sacrificed after 4 weeks of treatment and tissues and blood were harvested. Urine albumin levels were assayed using a Mouse Albumin ELISA Kit (Exocell, Philadelphia, Pa.).
A point-counting method was utilized to evaluate the relative area of the mesangial matrix. PAS-stained glomeruli from each mouse were analyzed using a digital microscope screen grid containing 540 (27×20) points. Masson's trichrome-stained images were evaluated by ImageJ software, and the fibrotic areas were estimated.
Deparaffinized sections were incubated with picrosirius red solution for 1 hour at room temperature. The slides were washed twice with acetic acid solution for 30 seconds per wash. The slides were then dehydrated in absolute alcohol three times, cleared in xylene, and mounted with a synthetic resin. Sirius red staining was analyzed using ImageJ software, and fibrotic areas were quantified.
Frozen kidney sections (5 μm) were used for immunofluorescence; double positive labeling with CD31/αSMA, CD31/TGFβR1 and E-cadherin/αSMA was measured. Briefly, frozen sections were dried and placed in acetone for 10 min at −30° C. Once the sections were dried, they were washed twice in phosphate-buffered saline (PBS) for 5 min and then blocked in 2% bovine serum albumin/PBS for 30 min at room temperature. Thereafter, the sections were incubated in primary antibody (1:100) for 1 hour and washed in PBS (5 min) three times. Next, the sections were incubated with the secondary antibodies for 30 min, washed with PBS three times (5 min each), and mounted with mounting medium with DAPI (Vector Laboratories, Burlingame, Calif.). The immune-labeled sections were analyzed by fluorescence microscopy. For each mouse, original magnification of ×400 pictures were obtained from six different areas, and quantification was performed.
Frozen sections (5 μm) were used for the detection of EndMT and EMT. Cells undergoing EndMT were detected by double-positive labeling for CD31 and αSMA and/or TGFβR1. Cells undergoing EMT were detected by double-positive labeling for E-cadherin and αSMA. Sections were analyzed and quantified by fluorescence microscopy.
To determine whether Wnt inhibition could mitigate the renal fibrosis observed in diabetic mice lacking endothelial GR, a cohort of animals was treated with the Wnt inhibitor, LGK974. At the age of 8 weeks, control and GR^ECKO mice were injected with STZ 50 mg/kg for five consecutive days. Sixteen weeks after injection, LGK974 was administered by oral gavage for eight additional weeks (FIG. 16A).

[3] = 5 mg/kg oral gavage 6 days/week, weeks 4-12 of HFD, both genotypes
[4] = diabetic control vs diabetic GR^ECKO mice

Cc1cc(-c2ncc(CC(=O)Nc3ccc(-c4cnccn4)cn3)cc2C)ccn1 [LGK974]
atherosclerosis prognosis / atherogenic phenotype (canonical Wnt signaling [1]; 5 mg/kg oral gavage 6 days/week, weeks 4-12 of HFD): significantly improves the atherogenic phenotype; also recorded: surprising improvement in atherosclerosis prognosis
activation of canonical Wnt signaling (LacZ staining in aortas) (canonical Wnt signaling [1]; [3]): clearly attenuated
body weight (canonical Wnt signaling [1]; [3]): no weight loss
lesion size in brachiocephalic arteries (canonical Wnt signaling [1]; Masson Trichrome and H&E staining): dramatically reduced lesion size
cholesterol (canonical Wnt signaling [1]; after 12 weeks of HFD, both genotypes): dramatic reduction in cholesterol; also recorded: enormous
lipid deposition in aortas (Oil Red O staining) (canonical Wnt signaling [1]; both genotypes): dramatic reduction in lipid deposition
decrease in cholesterol levels (canonical Wnt signaling [1]; in vivo use in atherogenic mouse model): about 50%
H&E and Oil Red O staining in the aortic root of heart sections (canonical Wnt signaling [1]; mouse, in vivo): histological improvement
effect on Wnt signaling, fibrogenic phenotype and endothelial GR level in GR^ECKO (canonical Wnt signaling [2]; GR^ECKO vs mouse model of diabetic kidney disease): less evident
body weight (canonical Wnt signaling [2]; at sacrifice, among the groups, LGK974 oral gavage 8 weeks): no differences
level of EMT (E-cadherin/αSMA co-positive cells) (canonical Wnt signaling [2]; control and diabetic GR^ECKO mice): significantly reduced
renal fibrosis (canonical Wnt signaling [2]; diabetic GR^ECKO and DKO mice (legend of FIG. 16)): partially abrogates the renal fibrosis
kidney weight (canonical Wnt signaling [2]; diabetic GR^ECKO and diabetic control mice): significant reduction
EndMT (CD31/αSMA co-positive cells) (canonical Wnt signaling [2]; diabetic GR^ECKO mice): less pronounced
relative area of fibrosis (canonical Wnt signaling [2]; diabetic GR^ECKO mice): less pronounced, though still significant
relative collagen deposition (canonical Wnt signaling [2]; diabetic GR^ECKO mice): less pronounced, though still significant
tubular damage (canonical Wnt signaling [2]; diabetic GR^ECKO mice): less pronounced, though still significant
EndMT (CD31/αSMA co-positive cells) (canonical Wnt signaling [2]; diabetic control mice): significantly suppressed
relative area of fibrosis (canonical Wnt signaling [2]; diabetic control mice): clearly improved
relative collagen deposition (canonical Wnt signaling [2]; diabetic control mice): clearly improved
tubular damage (canonical Wnt signaling [2]; diabetic control mice): clearly improved
staining of fibronectin (canonical Wnt signaling [2]; [4]): A similar pattern was observed
staining of β-catenin (canonical Wnt signaling [2]; [4]): A similar pattern was observed
